The record followed here is ChEMBL document CHEMBL5104211, “Design and synthesis of bile acid derivatives and their activity against colon cancer” (RSC Med Chem, 2022).

In data set [1] the test system is RKO. The experiment in a line: Anticancer activity against human RKO cells assessed as inhibition of cell proliferation by MTT assay. Type of data set: functional, cell-based. In general terms: Formazan colour is commonly taken as a measure of viable cells.
Data set [2] has as its system RAW264.7. The data set can be described thus: Anti-inflammatory activity against mouse RAW264.7 cells assessed as inhibition of LPS-induced NO production at 10 micromol/L incubated for 24 hrs in presence of LPS by Griess reagent-based assay. The settings on record: RAW264.7, 24 h, dose 10 µmol/L. Type of data set: functional.
For data set [3], the system named is RAW264.7. The data set can be described thus: Anti-inflammatory activity against mouse RAW264.7 cells assessed as downregulation of LPS-induced TNF-alpha level at 25 micromol/L incubated for 24 hrs in presence of LPS by ELISA. Type of data set: functional. The settings on record: dose 25 µmol/L, at 25 µM.
Data set [4] relates to RAW264.7. The experiment in a line: Anti-inflammatory activity against mouse RAW264.7 cells assessed as inhibition of LPS-induced NO production at 25 micromol/L incubated for 24 hrs in presence of LPS by Griess reagent-based assay. Type of data set: functional. The settings on record: RAW264.7, 24 h, dose 25 µmol/L.
Data set [5] relates to HCT-116. The experiment in a line: Anticancer activity against human HCT-116 cells assessed as inhibition of cell proliferation by MTT assay. In kind it is functional, cell-based.
The test system of data set [6] is SK-HEP1. The data set can be described thus: Anticancer activity against human SK-HEP1 cells assessed as inhibition of cell proliferation by MTT assay. In kind it is functional, cell-based.
In data set [7] the test system is Huh-7. The experiment in a line: Anticancer activity against human Huh-7 cells assessed as inhibition of cell proliferation by MTT assay. In kind it is functional, cell-based.
In data set [8] the test system is LoVo. The data set can be described thus: Anticancer activity against human LoVo cells assessed as inhibition of cell proliferation by MTT assay. Type of data set: functional, cell-based.
Data set [9] has as its system SW480. The experiment in a line: Anticancer activity against human SW480 cells assessed as inhibition of cell proliferation by MTT assay. Type of data set: functional, cell-based.
A short description of data set [10]: Cytotoxicity against human WI-38 cells assessed as inhibition of cell proliferation by MTT assay. In kind it is toxicity, cell-based.
For data set [11], the system named is A549. The data set can be described thus: Anticancer activity against human A549 cells assessed as inhibition of cell proliferation by MTT assay. In kind it is functional, cell-based.
Data set [12] deals with RAW264.7. The data set can be described thus: Anti-inflammatory activity against mouse RAW264.7 cells assessed as inhibition of LPS-induced NO production incubated for 24 hrs in presence of LPS by Griess reagent-based assay. The settings on record: RAW264.7, 24 h. Type of data set: functional, cell-based. On the technique in general: The Griess reaction detects nitrite, a stable product of nitric oxide.

Data set [13] deals with MGC-803. The experiment in a line: Anticancer activity against human MGC-803 cells assessed as inhibition of cell proliferation by MTT assay. In kind it is functional, cell-based.
For data set [14], the system named is HT-29. The data set can be described thus: Anticancer activity against human HT-29 cells assessed as inhibition of cell proliferation by MTT assay. Type of data set: functional, cell-based.

`C[C@H](CCC(=O)OCc1cc(O)cc(O)c1)[C@H]1CC[C@H]2[C@@H]3CC[C@@H]4C[C@H](O)CC[C@]4(C)[C@H]3CC[C@]12C`: the IC50 in data set [1] is 42.9 µM; in [5] it was 50.3 µM; in [6] it was over 200 µM; in [7] it was over 200 µM; in data set [8], 59.8 µM; in data set [9], 134 µM. Moreover, the 50% inhibitory concentration (IC50) in data set [10] is over 200 µM; in data set [11], 124 µM; in data set [12] it was 12.1 µM; in [13], 82.3 µM; in data set [14] it was 45.4 µM. In addition, the inhibition at 10 µM in data set [2] was 49%. In addition, the Activity in data set [3] is 50%. The inhibition at 25 µM in [4] was 82.1%.

For orientation: IC50 means the concentration at which inhibition is half-maximal. A word on the inhibition: it is the change of the read-out against control, counted positive when it falls.
